Tests used:
[1] = test system: barnyard grass and green foxtail; assay: Uptake of radio-labelled nicosulfuron with adjuvant, compared with crop oil concentrate; type: in vivo; details: adjuvant rate giving the same nicosulfuron uptake as COC (uptake with COC set to 100%); nicosulfuron (ACCENT WDG 75) 0.031% w/v
Procedure: A separate study was undertaken to compare the performance of the invented composition compared with an industry standard, more particularly a crop oil concentrate (COC), on the uptake of nicosulfuron on barnyard grass and green foxtail. Nicosulfuron as ACCENT® WDG 75 was used at 0.031% w/v (46.7 g active ingredient/150 l/ha). Radio-labelled nicosulfuron (50 mCi/mmol) was added to freshly prepared treatment solution 0.5 h prior to use. The ^14C nicosulfuron comprised 7% by mass. Spray solutions with nicosulfuron alone i.e. without adjuvant, were formulated in 50% acetone. All additives were used at the same concentration. The uptake using COC (Example C3) was set to 100%, therefore the data in Table 2, below, reflects the reduction in concentration of the other adjuvants in order to achieve the same level of uptake for COC. In other words, one can reduce the amount of adjuvant by 75-80% in order to achieve the same effects compared to the use of COC.

Asian Soybean Rust = assay: Field trial in Brazil: soybean crop yield under Asian Soybean Rust, fungicide with or without adjuvant; type: in vivo; details: where added, 150 ml/ha
Procedure: Field trials were conducted in Brazil. Two standard biocide compositions from the market were applied to soybean crops: OPERA® (BASF) contains 5% w/w epoxiconazole and 13.3% w/w pyraclostrobin, the former is a preventive and curative fungicide, the latter a protectant, curative, and translaminar fungicide. FOLICUR® (Bayer CropScience) contains tebuconazole, a fungicide with protective, curative, and eradicant properties. The two compositions were applied at full recommended rate and at a 50% level. These experiments are compared to similar treatment of the plants adding in both cases adjuvant mixtures at a concentration of 150 ml/ha.

[2] = FOLICUR (tebuconazole) at full recommended rate
[3] = FOLICUR at 50% of the full recommended rate
[4] = OPERA (5% epoxiconazole, 13.3% pyraclostrobin) at full recommended rate
[5] = OPERA at 50% of the full recommended rate

Row | Substance | Adjuvant rate [1] | Soybean Crop Yield influenced by Asian Soybean Rust - relative to control (=100), FOLICUR (Asian Soybean Rust; [2]) | Soybean Crop Yield influenced by Asian Soybean Rust - relative to control (=100), FOLICUR (Asian Soybean Rust; [3]) | Soybean Crop Yield influenced by Asian Soybean Rust - relative to control (=100), OPERA (Asian Soybean Rust; [4]) | Soybean Crop Yield influenced by Asian Soybean Rust - relative to control (=100), OPERA (Asian Soybean Rust; [5])
1 | 2-Octyldodecyl polyglucoside (DP 1.7) [Example 1] | 0.24 % v/v | 141 | 161 | 161 | 137
2 | Isostearyl polyglucoside (DP 1.5) [Example 2] | 0.22 % v/v | 135 | 156 | 153 | 137
3 | Cetearyl polyglucoside (DP 1.5) [C1, reference compound] | 0.19 % v/v | 127 | 149 | 150 | 129

From US9326503B2, “Biocide compositions comprising branched alkyl polyglycosides” (Cognis IP Management GmbH, priority 2009, dated 2016)
